Paper PMC8948676, “Dihydropyridines Potentiate ATP-Induced Currents Mediated by the Full-Length Human P2X5 Receptor” (Molecules, 2022)

Columns and labels:
[1] = molecular target: T1, full-length human P2X5 receptor (hP2X5^FL) (Homo sapiens, UniProt Q93086, F216L/F232L); assay: cell-based; parameters: gene P2RX5
[2] = molecular target: T1, full-length human P2X5 receptor (hP2X5^FL); assay: two-microelectrode voltage clamp, Xenopus laevis oocytes (agonist concentration-response); format: cell-based; parameters: gene P2RX5; His-hP2X5^FL, full-length 444 residues including exon 10 (residues 328–349), N-terminal hexahistidine tag; homotrimer
[3] = molecular target: T1, full-length human P2X5 receptor (hP2X5^FL); assay: two-microelectrode voltage clamp, Xenopus laevis oocytes; potentiation of ATP-induced current at […]; format: cell-based; parameters: gene P2RX5; His-hP2X5^FL, full-length 444 residues including exon 10 (residues 328–349), N-terminal hexahistidine tag; homotrimer

T1 sequence (Q93086 whole entry F216L/F232L, the tested form may be a part): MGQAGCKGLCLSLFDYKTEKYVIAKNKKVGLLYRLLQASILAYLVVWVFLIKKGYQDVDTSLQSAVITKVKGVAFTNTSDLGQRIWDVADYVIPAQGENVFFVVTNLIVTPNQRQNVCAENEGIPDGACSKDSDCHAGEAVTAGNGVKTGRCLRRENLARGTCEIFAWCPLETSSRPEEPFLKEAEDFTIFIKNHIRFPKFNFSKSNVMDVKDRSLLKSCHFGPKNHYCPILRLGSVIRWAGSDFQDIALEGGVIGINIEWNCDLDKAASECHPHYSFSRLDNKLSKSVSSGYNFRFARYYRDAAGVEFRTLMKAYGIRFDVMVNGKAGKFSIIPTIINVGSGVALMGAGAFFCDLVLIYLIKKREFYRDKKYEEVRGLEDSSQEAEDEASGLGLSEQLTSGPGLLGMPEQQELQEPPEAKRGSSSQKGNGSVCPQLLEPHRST

SMILES: Nc1ncnc2c1ncn2[C@@H]1O[C@H](COP(=O)(O)OP(=O)(O)OP(=O)(O)O)[C@@H](O)[C@H]1O [ATP]
- EC50 [1]: ~39 µM

SMILES: Nc1ncnc2c1ncn2[C@@H]1O[C@H](COP(=O)(O)OP(=O)(O)OP(=O)(O)O)[C@@H](OC(=O)c2ccc(C(=O)c3ccccc3)cc2)[C@H]1O [BzATP]
- two-microelectrode voltage clamp, Xenopus laevis oocytes (agonist concentration- [2]: BzATP, displayed a higher affinity for hP2X5^FL than ATP but a lower efficacy

SMILES: COC(=O)C1=C(C)NC(C)=C(C(=O)OC(C)C)C1c1cccc2nonc12 (stereo not drawn) [isradipine]
- two-microelectrode voltage clamp, Xenopus laevis oocytes; potentiation of ATP-in [3]: In contrast, isradipine and nimodipine stimulated the ATP-induced currents.
